Experimental findings from ChEMBL document CHEMBL5537212, “Benzodioxane Carboxamide Derivatives As Novel Monoamine Oxidase B Inhibitors with Antineuroinflammatory Activity” (ACS Med Chem Lett, 2024) are described below.

Molecules are shown by their SMILES.

The target in assay [1] is T1, Amine oxidase [flavin-containing] B (Homo sapiens, UniProt P27338).
T1 sequence (P27338 whole entry): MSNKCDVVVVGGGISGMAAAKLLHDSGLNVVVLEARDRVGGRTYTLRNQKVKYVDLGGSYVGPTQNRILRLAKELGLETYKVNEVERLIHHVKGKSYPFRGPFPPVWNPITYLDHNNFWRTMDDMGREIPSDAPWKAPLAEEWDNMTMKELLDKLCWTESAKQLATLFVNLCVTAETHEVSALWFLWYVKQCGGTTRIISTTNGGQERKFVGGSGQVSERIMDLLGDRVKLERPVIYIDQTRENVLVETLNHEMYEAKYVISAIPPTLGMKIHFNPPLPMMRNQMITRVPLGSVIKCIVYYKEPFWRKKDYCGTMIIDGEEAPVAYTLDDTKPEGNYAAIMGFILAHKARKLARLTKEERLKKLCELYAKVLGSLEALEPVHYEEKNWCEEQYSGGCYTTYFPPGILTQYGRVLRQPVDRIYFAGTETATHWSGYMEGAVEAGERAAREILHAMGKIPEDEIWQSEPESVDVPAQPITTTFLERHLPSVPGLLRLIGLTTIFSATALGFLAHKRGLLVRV
Briefly: Inhibition of recombinant human MAO-B using benzylamine as substrate at 1 uM incubated for 20 mins by fluorescence microplate reader analysis relative to control. The settings on record: read-out: INH.

Assay [2] addresses T2, Amine oxidase [flavin-containing] A (Homo sapiens, UniProt P21397).
T2 sequence (P21397 whole entry): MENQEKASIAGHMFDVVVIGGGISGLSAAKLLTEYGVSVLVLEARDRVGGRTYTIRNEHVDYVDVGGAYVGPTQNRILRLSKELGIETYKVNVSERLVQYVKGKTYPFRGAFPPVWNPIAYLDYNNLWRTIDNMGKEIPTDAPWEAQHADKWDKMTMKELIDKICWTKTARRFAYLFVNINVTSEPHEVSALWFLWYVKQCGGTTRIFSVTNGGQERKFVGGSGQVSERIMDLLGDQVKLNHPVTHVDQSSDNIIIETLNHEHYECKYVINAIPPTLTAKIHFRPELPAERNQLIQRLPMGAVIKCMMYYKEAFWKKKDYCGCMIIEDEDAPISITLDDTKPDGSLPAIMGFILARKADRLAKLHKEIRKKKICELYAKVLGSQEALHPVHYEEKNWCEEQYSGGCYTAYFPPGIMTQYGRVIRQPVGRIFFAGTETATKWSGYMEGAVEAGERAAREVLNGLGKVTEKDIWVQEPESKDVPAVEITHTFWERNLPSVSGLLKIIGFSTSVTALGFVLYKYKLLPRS
Description: Inhibition of recombinant human MAO-A incubated for 15 mins by Amplex Red reagent and horseradish peroxidase based fluorescence microplate reader analysis

Assay [3] deals with T2, Amine oxidase [flavin-containing] A. Briefly: Inhibition of recombinant human MAO-A at 0.1 uM incubated for 15 mins by Amplex Red reagent and horseradish peroxidase based fluorescence microplate reader analysis relative to control. The conditions noted are these: 0.25 h.

With `O=C(Nc1ccccc1Cl)c1ccc2c(c1)OCCO2`, the inhibition at 1 µM in assay [1] is below 5%. Moreover, the IC50 (as a rule, the concentration needed to halve the response being measured) in assay [2] was above 40 µM.
In the same order, the values of `O=C(Nc1ccc2c(c1)OCCO2)c1ccc2c(c1)OCCO2` are 36.1% and above 40 µM.
On to `O=C(Nc1ccccc1)c1ccccc1` [N-PHENYLBENZAMIDE], for which the inhibition at 1 µM in assay [1] was below 5%. Also, in assay [2], the IC50 is above 40 µM.
The corresponding values for `O=C(Nc1ccc(Cl)c(Cl)c1)c1ccccc1` are 40.2% and above 40 µM.
The corresponding values for `O=C(Nc1ccc2c(c1)OCCO2)c1ccc(Cl)c(Cl)c1` are 30.8% and above 40 µM.
`O=C(Nc1ccc(Br)cc1)c1ccc2c(c1)OCCO2` yielded an IC50 in assay [2] above 40 µM.
In the case of `COc1ccc(NC(=O)c2ccc3c(c2)OCCO3)cc1OC`, the inhibition at 1 µM in assay [1] is below 5%. Moreover, the IC50 in assay [2] is above 40 µM.
Take `O=C(Nc1cccc(Cl)c1)c1ccccc1`: the inhibition at 1 µM in assay [1] was below 5%. In assay [2], the IC50 was above 40 µM.
In the same order, the values of `COc1cccc(NC(=O)c2ccc3c(c2)OCCO3)c1` are 19.7% and above 40 µM.
As to `COc1ccc(NC(=O)c2ccc3c(c2)OCCO3)cc1Cl`, the inhibition at 1 µM in assay [1] worked out at 27.4%. Moreover, in assay [2], the IC50 was above 40 µM.
In the same order, the values of `O=C(Nc1ccccc1F)c1ccc2c(c1)OCCO2` are 19.1% and above 40 µM.
As for `O=C(Nc1ccccc1)c1ccc2c(c1)OCO2`, the inhibition at 1 µM in assay [1] is below 5%. The molecule further yielded an IC50 in assay [2] above 40 µM.
As for `O=C(Nc1ccc2[nH]ncc2c1)c1ccc2c(c1)OCCO2`, in assay [1], the inhibition at 1 µM was found to be 13.8%. In addition, in assay [2], the half-inhibitory concentration (IC50) is above 40 µM.
In the case of `C#CCN(C)CCCOc1ccc(Cl)cc1Cl` [CLORGILINE], the inhibition at 0.1 µM in assay [3] came out at 79.9%.
In the case of `COc1ccc(NC(=O)c2ccc3c(c2)OCCO3)cc1`, the inhibition at 1 µM in assay [1] is below 5%. This molecule displayed an IC50 in assay [2] above 40 µM.
Take `O=C(Nc1cccc(Cl)c1Cl)c1ccc2c(c1)OCCO2`: in assay [1], the inhibition at 1 µM stood at 53%. In assay [2], this molecule returned an IC50 above 40 µM.
`O=C(NCc1ccccc1)c1ccc2c(c1)OCCO2`: the inhibition at 1 µM in assay [1] is below 5%. This molecule yielded an IC50 in assay [2] above 40 µM.
